Test results: US20210251220A1, “LICE ELIMINATOR” (priority 2018, published 2021)

Assay: Contact angle of spreading component
Type: physicochemical
Details: 10% by weight aqueous solution, droplet on stainless steel plate, θ/2 method (JIS R3257)
Protocol: It is preferred that the contact angle of the spreading component to be mixed in the lice eliminator according to the present invention is 1 to 60°. When the contact angle on a solid surface of the spreading component to be mixed in the lice eliminator according to the present invention is in this range, the lice eliminator spreads wet and is easily taken onto a louse, for example, easily adheres to and spreads out over the outer skin of a louse, without being repelled by the outer skin when brought into contact with the louse, and the effect of exterminating a louse by blocking the louse from the outside, for example, by sealing the spiracle of the louse becomes higher. It is preferred that the contact angle of the spreading component contained in the lice eliminator of the present invention is measured by a θ/2 method or the like in accordance with the method described in JIS R3257 (1999) or the like. When the spreading component is soluble in water and is solid, the contact angle as an aqueous solution, for example, at 10% by weight or the like is measured. When the spreading component is not soluble in water and is in a liquid state, the contact angle is measured as the stock solution, and when the spreading component is soluble in water and is in a liquid state, the contact angle is measured as the stock solution or an aqueous solution at 10% by weight or the like.
A 10% by weight aqueous solution of each spreading component was prepared, and the contact angle when a droplet of the aqueous solution was put on a stainless steel plate was measured with a contact angle meter (CAX-150 manufactured by Kyowa Interface Science Co., Ltd.) by a θ/2 method in accordance with the method described in JIS R3257 (1999).

Polyoxyethylene lauryl ether [compound 8]
Contact angle (°) of agent: 38 °

Polyethylene glycol monolaurate [compound 9]
Contact angle (°) of agent: 34 °

Monolauric acid polyethylene glycol [compound 10]
Contact angle (°) of agent: 39 °

CCCCCCCCCCCCc1ccc(S(=O)(=O)[O-])cc1.[Na+] [compound 1, Sodium dodecylbenzenesulfonate]
Contact angle (°) of agent: 25 °

CCCCCCCCCCCC[N+](C)(C)C.[Cl-] [compound 4, Lauryl trimethyl ammonium chloride]
Contact angle (°) of agent: 36 °

CCCCCCCCCCCCOS(=O)(=O)[O-].[Na+] [compound 3, Sodium lauryl sulfate]
Contact angle (°) of agent: 38 °
